Test results as given in article PMC7047272 (ACS Central Science, 2020).
pIC50: −log10 of the molar value.

Legend:
[1] = target: β5i of mouse 20S immunoproteasome (IP) (Mus musculus, UniProt P28063); test: biochemical
[2] = target: β2i of human 20S immunoproteasome (IP) (Homo sapiens, UniProt P40306); test: Fluorogenic substrate hydrolysis, trypsin-like activity; type: biochemical
[3] = test system: chymotrypsin-like activity in live LCL721.145 cells (containing immunoproteasome); type: cell-based, human; details: MeO-Suc-GLF-AMC, up to 1 μM
[4] = target: β5i of human 20S immunoproteasome (IP) (Homo sapiens, UniProt P28062); test: Fluorogenic substrate hydrolysis, chymotrypsin-like activity; type: biochemical
[5] = target: β2i of mouse 20S immunoproteasome (IP) (Mus musculus, UniProt O35955); test: biochemical; type: biochemical
[6] = target: β5 of human 20S constitutive proteasome (CP) (Homo sapiens, UniProt P28074); test: Fluorogenic substrate hydrolysis, chymotrypsin-like activity; type: biochemical
[7] = target: β1i (LMP2) of mouse 20S immunoproteasome (IP) (Mus musculus, UniProt P28076); test: biochemical
[8] = target: β2 of human 20S constitutive proteasome (CP) (Homo sapiens, UniProt Q99436); test: Fluorogenic substrate hydrolysis, trypsin-like activity; type: biochemical
[9] = target: β5 of mouse 20S constitutive proteasome (CP) (Mus musculus, UniProt O55234); test: Fluorogenic substrate hydrolysis, chymotrypsin-like activity; type: biochemical
[10] = target: β2 of mouse 20S constitutive proteasome (CP) (Mus musculus, UniProt P70195); type: biochemical; details: at concentrations up to 1 μM

Compound	pIC50 [1]	pIC50 [2]	inhibition of chymotrypsin-like activity in live cells (cell permeability) [3]	pIC50 [4]	pIC50 [5]	selectivity β2/β2i [5]	pIC50 [6]	pIC50 [7]	pIC50 [8]	pIC50 [9]	effect on β2 of the constitutive proteasome [10]
CCCCCCC/C=C/C=C/C(=O)N[C@H](C(=O)N[C@H]1C[C@@H](O)CCNC(=O)/C=C/[C@H](C)NC1=O)[C@@H](C)O [GlbA, glidobactin A]	8.96	7.38	inactive	7.60	8.85	> 714	8.44	6.60	7.82	9.19	almost unaffected
CCCCCCC/C=C/C=C/C(=O)N[C@H](C(=O)N[C@H]1CCCCNC(=O)/C=C/[C@H](C)NC1=O)[C@@H](C)O [LumA, luminmycin A]	8.05	6.77	inactive	5.80	–	–	7.41	–	6.59	7.49	–
